Results published in US12421191B2, “3-hydroxyoxindole derivatives as CRHR2 antagonist” (RaQualia Pharma Inc., priority 2020, dated 2025).

biological target: T1, human CRHR2-alpha (Homo sapiens, UniProt Q13324); assay: cAMP functional assay for human CRHR2 (LANCE Ultra TR-FRET); type: cell-based; settings: inhibition of cAMP production in CHO-K1 cells stably expressing human CRHR2-alpha, EC90 of human urocortin2 as agonist; read-out: IC50 against CRHR2
T1 construct: host or cells: CHO-K1
T1 sequence (Q13324 1-411): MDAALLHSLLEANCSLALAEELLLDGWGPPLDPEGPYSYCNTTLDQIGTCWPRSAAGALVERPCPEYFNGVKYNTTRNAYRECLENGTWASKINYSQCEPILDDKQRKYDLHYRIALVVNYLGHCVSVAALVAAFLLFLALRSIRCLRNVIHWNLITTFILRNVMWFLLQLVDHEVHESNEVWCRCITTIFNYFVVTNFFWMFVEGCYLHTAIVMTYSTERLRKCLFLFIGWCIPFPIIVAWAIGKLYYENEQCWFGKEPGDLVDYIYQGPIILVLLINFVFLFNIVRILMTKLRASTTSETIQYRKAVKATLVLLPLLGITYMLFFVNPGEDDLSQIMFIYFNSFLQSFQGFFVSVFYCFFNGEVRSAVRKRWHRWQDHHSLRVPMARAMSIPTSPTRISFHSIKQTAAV
Method: cAMP functional assay for human CRHR2 The ability of the compounds of this invention to inhibit either CRHR2 is assessed by 3′,5′-cyclic adenosine monophosphate (cAMP) production in cells using the LANCE Ultra cAMP assay kit (ParkinElmer), which are designed based on the homogeneous time-resolved fluorescence resonance energy transfer (TR-FRET) immunoassay.
CHO-K1 (Chinese hamster ovary) cells stably expressing human CRHR2-alpha (DiscoveRX, Cat. 95-0048C2) are grown in HAM's F12 media supplemented with 10% fetal bovine serum (FBS), 100 units/mL penicillin G, 100 microg/mL hygromycin and 0.5 microg/mL geneticin at 37° C. in 5% CO2 humidified incubator to 80% confluence. After 7 hours starvation treatment in culture media containing 0.1% FBS, the cells are washed with Hanks balanced salt solution (HBSS) and cryopreserved.
For cAMP assay, frozen cells are thawed and washed with HBSS, followed by resuspending cells in assay buffer (HBSS containing 0.1% bovine serum albumin, 0.5 mM isobutylmethylxanthine and 5 mM Hepes, pH 7.4) at the appropriate concentration for the assay. The cell suspensions are plated on 384-well microplates (Greiner Bio-One) at a density of 4,000 cells per well. After preincubating the cells with various concentrations of the compounds for 30 min at 25° C., an assay buffer containing EC90 concentration of agonist is added and the cells are incubated for 30 min at 25° C. Human urocortin2 (Peptide Institute) is used as agonists for CRHR2. For the termination of assay, europium-labeled cAMP tracer and ULight (registered trademark) dye labeled cAMP antibodies, both prepared with Lance-Ultra cAMP detection reagent (PerkinElmer) are added in the plate and incubate for 60 min at 25° C. After incubation, TR-FRET signal is detected by EnVision plate reader (PerkinElmer). The IC50 values for compounds are calculated from dose-response curves by fitting the percent inhibition using XLfit (ID Business Solutions).

Question: How did the IC50 turn out when `O=C(N[C@H]1CC[C@H](CN2C(=O)C(O)(c3ccccc3F)c3ccccc32)CC1)c1cc(Cl)cnc1C(F)F` (some centres unmarked) [Example 33, 5-chloro-2-(difluoromethyl)-N-((1r,4r)-4-((3-(2-fluorophenyl)-3-hydroxy-2-oxoindolin-1-yl)methyl)cyclohexyl) nicotinamide] was run?
Answer: < 200 nM

Question: With `O=C(N[C@H]1CC[C@H](CN2C(=O)C(O)(c3cc(F)cs3)c3ccccc32)CC1)c1cc(Cl)cnc1C(F)F` (some centres unmarked) [Example 98, 5-chloro-2-(difluoromethyl)-N-((1r,4r)-4-((3-(4-fluorothiophen-2-yl)-3-hydroxy-2-oxoindolin-1-yl)methyl)cyclohexyl) nicotinamide] as the molecule, how does the IC50 read?
Answer: < 200 nM

Question: `COc1cc(C2(O)C(=O)N(C[C@H]3CC[C@H](NC(=O)c4cc(Cl)cnc4C(F)F)CC3)c3ccccc32)c(F)cn1` (some centres unmarked) [Example 27, 5-chloro-2-(difluoromethyl)-N-((1r,4r)-4-((3-(5-fluoro-2-methoxypyridin-4-yl)-3-hydroxy-2-oxoindolin-1-yl)methyl)cyclohexyl) nicotinamide] was tested. Which IC50 did it give?
Answer: < 200 nM

Question: `COc1ccc(F)c(C2(O)C(=O)N(C[C@H]3CC[C@H](NC(=O)c4cc(Cl)cnc4C(F)F)CC3)c3ccc(F)cc32)c1` (some centres unmarked) [Example 168, 5-chloro-2-(difluoromethyl)-N-((1r,4r)-4-((5-fluoro-3-(2-fluoro-5-methoxyphenyl)-3-hydroxy-2-oxoindolin-1-yl)methyl)cyclohexyl) nicotinamide] was tested. Which IC50 did it give?
Answer: < 200 nM

Question: With `Cc1ncc(Cl)cc1C(=O)N[C@H]1CC[C@H](CN2C(=O)C(O)(c3cccc(F)c3F)c3ccc(F)cc32)CC1` (some centres unmarked) [Example 143, 5-chloro-N-((1r,4r)-4-((3-(2,3-difluorophenyl)-6-fluoro-3-hydroxy-2-oxoindolin-1-yl)methyl)cyclohexyl)-2-methylnicotinamide] as the molecule, how does the IC50 read?
Answer: < 200 nM

Question: `O=C(N[C@H]1CC[C@H](CN2C(=O)C(O)(c3cc(F)ccc3F)c3ccccc32)CC1)c1cc(Cl)cnc1C(F)F` (some centres unmarked) [Example 58, 5-chloro-2-(difluoromethyl)-N-((1r,4r)-4-((3-(2,5-difluorophenyl)-3-hydroxy-2-oxoindolin-1-yl)methyl)cyclohexyl) nicotinamide] was tested. Which IC50 did it give?
Answer: < 200 nM

Question: For `O=C(N[C@H]1CC[C@H](CN2C(=O)C(O)(c3sccc3F)c3ccccc32)CC1)c1cc(Cl)cnc1C(F)F` (some centres unmarked) [Example 95, 5-chloro-2-(difluoromethyl)-N-((1r,4r)-4-((3-(3-fluorothiophen-2-yl)-3-hydroxy-2-oxoindolin-1-yl)methyl)cyclohexyl) nicotinamide], which IC50 is on record?
Answer: < 200 nM

Question: Which IC50 does the source give for `N#Cc1ccc(F)c(C2(O)C(=O)N(C[C@H]3CC[C@H](NC(=O)c4cc(Cl)cnc4C(F)F)CC3)c3ccccc32)c1` (some centres unmarked) [Example 59, 5-chloro-N-((1r,4r)-4-((3-(5-cyano-2-fluorophenyl)-3-hydroxy-2-oxoindolin-1-yl)methyl)cyclohexyl)-2-(difluoromethyl)nicotinamide] here?
Answer: < 200 nM

Question: How did the IC50 turn out when `O=C(N[C@H]1CC[C@H](CN2C(=O)C(O)(c3cccc(F)c3F)c3ccccc32)CC1)c1cc(Cl)cnc1Cl` (some centres unmarked) [Example 167, 2,5-dichloro-N-((1r,4r)-4-((3-(2,3-difluorophenyl)-3-hydroxy-2-oxoindolin-1-yl)methyl)cyclohexyl) nicotinamide] was run?
Answer: < 200 nM

Question: With `Cc1ncc(Cl)cc1C(=O)N[C@H]1CC[C@H](CN2C(=O)C(O)(c3cccc(F)c3F)c3ccccc32)CC1` (some centres unmarked) [Example 173, 5-chloro-N-((1r,4r)-4-((3-(2,3-difluorophenyl)-3-hydroxy-2-oxoindolin-1-yl)methyl)cyclohexyl)-2-methylnicotinamide] as the molecule, how does the IC50 read?
Answer: < 200 nM

Question: For `O=C(N[C@H]1CC[C@H](CN2C(=O)C(O)(c3ccc(F)cc3F)c3ccccc32)CC1)c1cc(Cl)cnc1C(F)F` (some centres unmarked) [Example 53, 5-chloro-2-(difluoromethyl)-N-((1r,4r)-4-((3-(2,4-difluorophenyl)-3-hydroxy-2-oxoindolin-1-yl)methyl)cyclohexyl) nicotinamide], which IC50 is on record?
Answer: < 200 nM
